Tests used:
Carbonic anhydrase 9 = Carbonic anhydrase 9 (Homo sapiens, UniProt Q16790)
Carbonic anhydrase 1 = Carbonic anhydrase 1 (Homo sapiens, UniProt P00915)
Carbonic anhydrase 2 = Carbonic anhydrase 2 (Homo sapiens, UniProt P00918)
Carbonic anhydrase 7 = Carbonic anhydrase 7 (Homo sapiens, UniProt P43166)
Carbonic anhydrase 14 = Carbonic anhydrase 14 (Homo sapiens, UniProt Q9ULX7)
Chain of Carbonic anhydrase 14 (Q9ULX7 whole entry): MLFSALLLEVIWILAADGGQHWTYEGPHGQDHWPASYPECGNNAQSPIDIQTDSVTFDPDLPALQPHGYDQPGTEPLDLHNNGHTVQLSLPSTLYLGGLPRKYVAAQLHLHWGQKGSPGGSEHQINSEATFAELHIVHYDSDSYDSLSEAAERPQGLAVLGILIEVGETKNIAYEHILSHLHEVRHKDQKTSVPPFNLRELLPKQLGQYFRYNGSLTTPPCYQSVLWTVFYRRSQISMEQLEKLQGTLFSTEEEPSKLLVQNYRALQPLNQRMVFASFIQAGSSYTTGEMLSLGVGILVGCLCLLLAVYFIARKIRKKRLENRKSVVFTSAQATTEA

Chain of Carbonic anhydrase 1 (P00915 whole entry): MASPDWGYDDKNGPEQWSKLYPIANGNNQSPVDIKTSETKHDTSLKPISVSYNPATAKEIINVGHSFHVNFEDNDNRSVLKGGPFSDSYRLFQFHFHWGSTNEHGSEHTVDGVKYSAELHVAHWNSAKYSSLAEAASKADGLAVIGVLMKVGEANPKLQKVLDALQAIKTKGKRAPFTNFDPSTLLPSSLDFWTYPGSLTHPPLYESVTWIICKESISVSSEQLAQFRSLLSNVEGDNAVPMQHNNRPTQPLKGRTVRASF
Chain of Carbonic anhydrase 7 (P43166 whole entry): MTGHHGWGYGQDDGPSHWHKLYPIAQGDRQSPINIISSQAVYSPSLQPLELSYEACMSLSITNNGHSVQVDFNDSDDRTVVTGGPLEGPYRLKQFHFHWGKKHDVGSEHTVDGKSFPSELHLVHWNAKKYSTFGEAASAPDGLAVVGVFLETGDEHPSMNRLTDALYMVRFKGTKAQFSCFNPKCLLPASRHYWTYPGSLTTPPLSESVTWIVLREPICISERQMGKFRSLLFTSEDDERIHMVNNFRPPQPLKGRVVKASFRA

Question: With `COc1cc2c(cc1OC)C(c1ccc(S(N)(=O)=O)cc1)NCC2` (configuration not stated) as the molecule, how does the Ki (Carbonic anhydrase 9) read?
Answer: 0.13 µM

Question: For `COc1ccc2c(c1)CCN=C2c1ccc(S(N)(=O)=O)cc1`, which Ki (Carbonic anhydrase 9) is on record?
Answer: 0.0183 µM

Question: For `CCOc1ccc2c(c1)CCN=C2c1ccc(S(N)(=O)=O)cc1`, which Ki (Carbonic anhydrase 9) is on record?
Answer: 0.0072 µM

Question: What about the Ki (Carbonic anhydrase 1) of the same molecule?
Answer: 1.05 µM

Question: What about the Ki (Carbonic anhydrase 2) of the same molecule?
Answer: 0.0875 µM

Question: And the Ki (Carbonic anhydrase 7)?
Answer: 0.0065 µM

Question: What about the Ki (Carbonic anhydrase 14) of the same molecule?
Answer: 0.0179 µM

Question: Which Ki (Carbonic anhydrase 9) does the source give for `COc1cc2c(cc1OC)C(c1ccc(S(N)(=O)=O)cc1)N(S(N)(=O)=O)CC2` (configuration not stated) here?
Answer: 0.076 µM

Question: `NS(=O)(=O)c1ccc(C2NCCc3cc(O)ccc32)cc1` (configuration not stated) was tested. Which Ki (Carbonic anhydrase 9) did it give?
Answer: 0.0683 µM

Question: How did the Ki (Carbonic anhydrase 9) turn out when `COc1ccc2c(c1)CCN(S(N)(=O)=O)C2c1ccc(S(N)(=O)=O)cc1` (configuration not stated) was run?
Answer: 0.0065 µM

Question: `COc1ccc(CCNC(=O)c2ccc(S(N)(=O)=O)cc2)cc1OC` was tested. Which Ki (Carbonic anhydrase 9) did it give?
Answer: 0.0038 µM

Question: How did the Ki (Carbonic anhydrase 9) turn out when `COc1ccc2c(c1)CCNC2c1ccc(S(N)(=O)=O)cc1` (racemic) was run?
Answer: 0.0154 µM

Question: How did the Ki (Carbonic anhydrase 9) turn out when `NS(=O)(=O)c1ccc(C2=NCCc3cc(O)ccc32)cc1` was run?
Answer: 0.0515 µM

Question: With `CCOc1cccc(CCNC(=O)c2ccc(S(N)(=O)=O)cc2)c1` as the molecule, how does the Ki (Carbonic anhydrase 9) read?
Answer: 0.0081 µM

Question: Which Ki (Carbonic anhydrase 9) does the source give for `CCCOc1cccc(CCNC(=O)c2ccc(S(N)(=O)=O)cc2)c1` here?
Answer: 0.0083 µM

Question: How did the Ki (Carbonic anhydrase 9) turn out when `COc1cc2c(cc1OC)C(c1ccc(S(N)(=O)=O)cc1)=NCC2` was run?
Answer: 0.21 µM

Question: With `CCCOc1ccc2c(c1)CCN=C2c1ccc(S(N)(=O)=O)cc1` as the molecule, how does the Ki (Carbonic anhydrase 9) read?
Answer: 0.0161 µM

Question: And the Ki (Carbonic anhydrase 1)?
Answer: 0.0831 µM

Question: What about the Ki (Carbonic anhydrase 2) of the same molecule?
Answer: 0.0088 µM

Question: And the Ki (Carbonic anhydrase 7)?
Answer: 0.008 µM

Question: And the Ki (Carbonic anhydrase 14)?
Answer: 0.0087 µM

Question: How did the Ki (Carbonic anhydrase 9) turn out when `NS(=O)(=O)c1ccc(C(=O)NCCc2cccc(O)c2)cc1` was run?
Answer: 0.0417 µM

Question: `CCOc1ccc2c(c1)CCN(S(N)(=O)=O)C2c1ccc(S(N)(=O)=O)cc1` (configuration not stated) was tested. Which Ki (Carbonic anhydrase 9) did it give?
Answer: 0.0521 µM

Question: With `CCCOc1ccc2c(c1)CCNC2c1ccc(S(N)(=O)=O)cc1` (racemic) as the molecule, how does the Ki (Carbonic anhydrase 9) read?
Answer: 0.0092 µM

Question: Which Ki (Carbonic anhydrase 9) does the source give for `CCOc1ccc2c(c1)CCNC2c1ccc(S(N)(=O)=O)cc1` (racemic) here?
Answer: 0.0092 µM

Question: Which Ki (Carbonic anhydrase 9) does the source give for `NS(=O)(=O)c1ccc(C2c3ccc(O)cc3CCN2S(N)(=O)=O)cc1` (configuration not stated) here?
Answer: 0.0079 µM

Question: Which Ki (Carbonic anhydrase 9) does the source give for `COc1cccc(CCNC(=O)c2ccc(S(N)(=O)=O)cc2)c1` here?
Answer: 0.0065 µM
